Assay [1] concerns the target Escherichia coli LpxH (UDP-2,3-diacylglucosamine hydrolase) (Escherichia coli (strain K12), UniProt P43341). The assay can be described thus: 50% Inhibitory Concentration (IC50) to LpxH, UMP/CMP-Glo Glycosyltransferase Assay kit. It counts as biochemical. In outline: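 LpxH hydrolysis of UDP-2,3-diacylglucosamine to lipid X and UMP; UMP produced is converted to ATP and quantified by luciferase luminescence (UMP/CMP-Glo). Inhibition taken from reduced light output.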

For the next assay, the system named is E. coli (ATCC 25922). The assay can be described thus: Minimal Inhibitory Concentration (MIC) assay, E. coli. Particulars: Escherichia coli, read-out: MIC E. coli ATCC 25922. In kind it is cell-based. In outline:
(§1)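 Broth microdilution in cation-adjusted Mueller Hinton broth, inoculum 5×10^5 CFU/mL, compounds 2-fold serially diluted from 10 mM DMSO stocks. Plates incubated 20 hours at 35° C in ambient air; MIC (μg/mL) is the lowest concentration preventing visible growth.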

For assay [2], the system named is K. pneumonia (ATCC 43816). Kind of assay: Minimal Inhibitory Concentration (MIC) assay, K. pneumonia. It counts as cell-based. Particulars: Klebsiella pneumoniae, read-out: MIC K. pneumoniae ATCC43816. In outline: as §1
The mark [3] stands for this setting: ATCC25922, E. coli ATCC 25922, CAMHB, 20 hours at 35° C.
[4] abbreviates: K. pneumoniae ATCC43816, CAMHB, 20 hours at 35° C.

This is an account of results in patent US20250011300A1, “PIPERAZINYLSULFONYLARYL COMPOUNDS FOR TREATMENT OF BACTERIAL INFECTIONS” (Hoffmann-La Roche Inc., priority 2021, published 2025).

Converted amounts (≈) assume the structure as drawn. Like-named read-outs stand apart in the source and are kept apart here.

Chain of Escherichia coli LpxH (UDP-2,3-diacylglucosamine hydrolase) (P43341 whole entry): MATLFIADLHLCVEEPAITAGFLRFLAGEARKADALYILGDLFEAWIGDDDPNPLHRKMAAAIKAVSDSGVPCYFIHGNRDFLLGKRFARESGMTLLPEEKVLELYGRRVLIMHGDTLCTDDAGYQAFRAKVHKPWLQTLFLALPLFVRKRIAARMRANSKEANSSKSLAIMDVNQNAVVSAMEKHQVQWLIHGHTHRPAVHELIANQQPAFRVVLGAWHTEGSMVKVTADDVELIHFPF

Take `Cc1nc(N2CCN(S(=O)(=O)c3ccc(N4C[C@H](N)CC4=O)cc3)CC2)cc(C(F)(F)c2ccccc2)n1` [Example 83, (4R)-4-Amino-1-[4-[4-[6-[difluoro(phenyl)methyl]-2-methyl-pyrimidin-4-yl]piperazin-1-yl]sulfonylphenyl]pyrrolidin-2-one]: it took 0.00369 µM to reach half-maximal inhibition in assay [1] (IC50). Besides, the MIC (with E. coli (ATCC 25922) (setting [3]); in assay [2] (setting [4])) was 1.7 µg/mL (≈ 3.13 µM) each time.
Consider `NCC1COC(=O)N1c1ccc(S(=O)(=O)N2CCN(c3cc(C(F)(F)F)cc(Cl)n3)CC2)cc1` (stereo not drawn) [Example 6, 4-(Aminomethyl)-3-[4-[4-[6-chloro-4-(trifluoromethyl)-2-pyridyl]piperazin-1-yl]sulfonylphenyl]oxazolidin-2-one], for which, in assay [1], the IC50 – broadly, the concentration needed to halve the response being measured – is 0.0442 µM. The MIC (in the assay with E. coli (ATCC 25922) (setting [3]); in assay [2] (setting [4])) was 1.98 µg/mL (≈ 3.81 µM) each time.
The compound `O=C1CC(NC2CCNC2)CN1c1ccc(S(=O)(=O)N2CCN(c3cc(C(F)(F)F)cc(Cl)n3)CC2)cc1` (stereo not drawn) [Example 59, 1-[4-[4-[6-Chloro-4-(trifluoromethyl)-2-pyridyl]piperazin-1-yl]sulfonylphenyl]-4-(pyrrolidin-3-ylamino)pyrrolidin-2-one] had a concentration for half-maximal inhibition (IC50) in assay [1] of 0.096 µM. For the same compound, the minimal inhibitory concentration (MIC) (as a rule, the least concentration at which growth counts as inhibited) in the assay on E. coli (ATCC 25922) (setting [3]) was determined as 3.81 µg/mL (≈ 6.65 µM); in assay [2] (setting [4]) it was 7.62 µg/mL (≈ 13.3 µM).
For `NC1CC(=O)N(c2ccc(S(=O)(=O)N3CCN(c4cc(S(=O)(=O)C5CCOCC5)cc(Cl)n4)CC3)cc2)C1` (stereo not drawn) [Example 70, 4-Amino-1-[4-[4-(6-chloro-4-tetrahydropyran-4-ylsulfonyl-2-pyridyl)piperazin-1-yl]sulfonylphenyl]pyrrolidin-2-one] the same measures were 0.0479 µM, 15.5 µg/mL (≈ 26.6 µM) and 15.5 µg/mL (≈ 26.6 µM).
For `N[C@@H]1CN(C2CC(=O)N(c3ccc(S(=O)(=O)N4CCN(c5cc(C(F)(F)F)cc(Cl)n5)CC4)cc3)C2)C[C@H]1O` (stereo partly drawn) [Example 56, 4-[(3R,4R)-3-amino-4-hydroxy-pyrrolidin-1-yl]-1-[4-[4-[6-chloro-4-(trifluoromethyl)-2-pyridyl]piperazin-1-yl]sulfonylphenyl]pyrrolidin-2-one] the same measures were 0.0136 µM, 1.96 µg/mL (≈ 3.33 µM) and 3.91 µg/mL (≈ 6.64 µM).
In assay [1], `O=C1O[C@@H]2CNCC[C@@H]2N1c1ccc(S(=O)(=O)N2CCN(c3cc(C(F)(F)F)cc(Cl)n3)CC2)cc1` [Example 17, (3aR,7aS)-1-[4-[4-[6-chloro-4-(trifluoromethyl)-2-pyridyl]piperazin-1-yl]sulfonylphenyl]-3a,4,5,6,7,7a-hexahydrooxazolo[5,4-c]pyridin-2-one] had an IC50 of 0.482 µM. In addition, the minimum inhibitory concentration (MIC) with E. coli (ATCC 25922) (ATCC25922, 20 h) came out at 1.82 µg/mL (≈ 3.33 µM); in assay [2] (ATCC43816, 20 h), 3.64 µg/mL (≈ 6.67 µM).
Consider `O=C1OC(CN2CCNCC2)CN1c1ccc(S(=O)(=O)N2CCN(c3cc(C(F)(F)F)cc(Cl)n3)CC2)cc1` (stereo not drawn) [Example 29, 3-[4-[4-[6-Chloro-4-(trifluoromethyl)-2-pyridyl]piperazin-1-yl]sulfonylphenyl]-5-(piperazin-1-ylmethyl)oxazolidin-2-one], for which, in assay [1], the IC50 was 0.0255 µM. In addition, the MIC (with E. coli (ATCC 25922) (setting [3]); in assay [2] (setting [4])) was 1.96 µg/mL (≈ 3.33 µM) each time.
As to `NC1CC(=O)N(c2ccc(S(=O)(=O)N3CCN(c4cc(C(F)(F)C5CCOCC5)cc(Cl)n4)CC3)cc2)C1` (stereo not drawn) [Example 95, 4-Amino-1-[4-[4-[6-chloro-4-[difluoro(tetrahydropyran-4-yl)methyl]-2-pyridyl]piperazin-1-yl]sulfonylphenyl]pyrrolidin-2-one], in assay [1], the IC50 is 0.0579 µM. The minimum inhibitory concentration (MIC) (in the assay on E. coli (ATCC 25922) (setting [3]); in assay [2] (setting [4])) was 0.89 µg/mL (≈ 1.56 µM) each time.
Regarding `O=C1CC2(CCNCC2)CN1c1ccc(S(=O)(=O)N2CCN(c3cc(C(F)(F)F)cc(Cl)n3)CC2)cc1` [Example 11, 2-[4-[4-[6-Chloro-4-(trifluoromethyl)-2-pyridyl]piperazin-1-yl]sulfonylphenyl]-2,8-diazaspiro[4.5]decan-3-one], in assay [1], the IC50 is 0.0233 µM. Moreover, the minimum inhibitory concentration (MIC) in the assay with E. coli (ATCC 25922) (setting [3]) came out at 2.1 µg/mL (≈ 3.76 µM); in assay [2] (setting [4]), 4.2 µg/mL (≈ 7.53 µM).
For `NC1CC(=O)N(c2ccc(S(=O)(=O)N3CCN(c4cc(C(F)(F)c5cccnc5)cc(Cl)n4)CC3)cc2)C1` (stereo not drawn) [Example 90, 4-Amino-1-[4-[4-[6-chloro-4-[difluoro(3-pyridyl)methyl]-2-pyridyl]piperazin-1-yl]sulfonylphenyl]pyrrolidin-2-one] the same measures were 0.0124 µM, 1.76 µg/mL (≈ 3.13 µM) and 1.76 µg/mL (≈ 3.13 µM).
In the case of `CNCC1CN(c2ccc(S(=O)(=O)N3CCN(c4cc(C(F)(F)F)cc(Cl)n4)CC3)cc2)C(=O)O1` (stereo not drawn) [Example 27, 3-[4-[4-[6-Chloro-4-(trifluoromethyl)-2-pyridyl]piperazin-1-yl]sulfonylphenyl]-5-(methylaminomethyl)oxazolidin-2-one], in assay [1], the IC50 was 0.0225 µM. For the same compound, the MIC with E. coli (ATCC 25922) (setting [3]) is 1.78 µg/mL (≈ 3.33 µM); in assay [2] (setting [4]), 3.57 µg/mL (≈ 6.69 µM).
In assay [1], `NCCNC1CC(=O)N(c2ccc(S(=O)(=O)N3CCN(c4cc(C(F)(F)F)cc(Cl)n4)CC3)cc2)C1` (stereo not drawn) [Example 45, 4-(2-Aminoethylamino)-1-[4-[4-[6-chloro-4-(trifluoromethyl)-2-pyridyl]piperazin-1-yl]sulfonylphenyl]pyrrolidin-2-one] had a half-inhibitory concentration (IC50) of 0.0457 µM. Moreover, the minimum inhibitory concentration (MIC) in the assay with E. coli (ATCC 25922) (setting [3]) stood at 3.65 µg/mL (≈ 6.67 µM); in assay [2] (setting [4]) it was 7.29 µg/mL (≈ 13.3 µM).
`O=C1O[C@@H]2CCCNC[C@@H]2N1c1ccc(S(=O)(=O)N2CCN(c3cc(C(F)(F)F)cc(Cl)n3)CC2)cc1` [Example 19, (3aS,8aR)-3-[4-[4-[6-chloro-4-(trifluoromethyl)-2-pyridyl]piperazin-1-yl]sulfonylphenyl]-4,5,6,7,8,8a-hexahydro-3aH-oxazolo[4,5-c]azepin-2-one] showed an IC50 in assay [1] of 0.0339 µM. Besides, the MIC (in the assay on E. coli (ATCC 25922) (setting [3]); in assay [2] (setting [4])) was 1.05 µg/mL (≈ 1.88 µM) each time.
Consider `O=C1CC(CNCC2CNC2)CN1c1ccc(S(=O)(=O)N2CCN(c3cc(C(F)(F)F)cc(Cl)n3)CC2)cc1` (stereo not drawn) [Example 38, 4-[(Azetidin-3-ylmethylamino)methyl]-1-[4-[4-[6-chloro-4-(trifluoromethyl)-2-pyridyl]piperazin-1-yl]sulfonylphenyl]pyrrolidin-2-one], for which the IC50 in assay [1] was 0.0477 µM. Further, the MIC (in the assay with E. coli (ATCC 25922) (setting [3]); in assay [2] (setting [4])) was 5.09 µg/mL (≈ 8.67 µM) throughout.
Compound `N[C@@H]1CN(C2CC(=O)N(c3ccc(S(=O)(=O)N4CCN(c5cc(C(F)(F)F)cc(Cl)n5)CC4)cc3)C2)CC[C@H]1O` (stereo partly drawn) [Example 57, 4-((3R,4R)-3-amino-4-hydroxypiperidin-1-yl)-1-(4-((4-(6-chloro-4-(trifluoromethyl)pyridin-2-yl)piperazin-1-yl)sulfonyl)phenyl)pyrrolidin-2-one] had an IC50 in assay [1] of 0.0348 µM. Besides, the minimal inhibitory concentration (MIC) (in the assay on E. coli (ATCC 25922) (setting [3]); in assay [2] (setting [4])) was 2 µg/mL (≈ 3.32 µM) throughout.
As for `NC1CCN(c2ccc(S(=O)(=O)N3CCN(c4cc(C(F)(F)F)cc(Cl)n4)CC3)cc2)C1=O` (stereo not drawn) [Example 8, 3-Amino-1-[4-[4-[6-chloro-4-(trifluoromethyl)-2-pyridyl]piperazin-1-yl]sulfonylphenyl]pyrrolidin-2-one], in assay [1], the IC50 is 0.117 µM. Besides, the values for the MIC (in the assay on E. coli (ATCC 25922) (setting [3]); in assay [2] (setting [4])) were 3.86 µg/mL (≈ 7.66 µM) and 7.72 µg/mL (≈ 15.3 µM), respectively.
For `N#CC1CN(c2cc(C(F)(F)F)cc(Cl)n2)CCN1S(=O)(=O)c1ccc(N2CC(N)CC2=O)cc1` (stereo not drawn) [Example 67, 1-[4-(4-Amino-2-oxo-pyrrolidin-1-yl)phenyl]sulfonyl-4-[6-chloro-4-(trifluoromethyl)-2-pyridyl]piperazine-2-carbonitrile] the same measures were 0.149 µM, 6.61 µg/mL (≈ 12.5 µM) and 13.2 µg/mL (≈ 25 µM).
For `NC1CC(=O)N(c2ccc(S(=O)(=O)N3CCN(c4cc(C(F)(F)c5cnccn5)cc(Cl)n4)CC3)cc2)C1` (stereo not drawn) [Example 93, 4-Amino-1-[4-[4-[6-chloro-4-[difluoro(pyrazin-2-yl)methyl]-2-pyridyl]piperazin-1-yl]sulfonylphenyl]pyrrolidin-2-one] the same measures were 0.0124 µM, 1.76 µg/mL (≈ 3.12 µM) and 1.76 µg/mL (≈ 3.12 µM).
Compound `CN(C)CC1CN(c2ccc(S(=O)(=O)N3CCN(c4cc(C(F)(F)F)cc(Cl)n4)CC3)cc2)C(=O)O1` (stereo not drawn) [Example 28, 3-[4-[4-[6-Chloro-4-(trifluoromethyl)-2-pyridyl]piperazin-1-yl]sulfonylphenyl]-5-[(dimethylamino)methyl]oxazolidin-2-one] had a concentration for half-maximal inhibition (IC50) in assay [1] of 0.0128 µM. For the same compound, the MIC (with E. coli (ATCC 25922) (setting [3]); in assay [2] (setting [4])) was 1.83 µg/mL (≈ 3.34 µM) throughout.
In assay [1], `CC1C(N)CC(=O)N1c1ccc(S(=O)(=O)N2CCN(c3cc(C(F)(F)F)cc(Cl)n3)CC2)cc1` (stereo not drawn) [Example 61, 4-Amino-1-[4-[4-[6-chloro-4-(trifluoromethyl)-2-pyridyl]piperazin-1-yl]sulfonylphenyl]-5-methyl-pyrrolidin-2-one] had an IC50 of 0.0502 µM. Moreover, the MIC (with E. coli (ATCC 25922) (setting [3]); in assay [2] (setting [4])) was 6.47 µg/mL (≈ 12.5 µM) each time.
Turning to `O=C1O[C@H]2CCNC[C@H]2N1c1ccc(S(=O)(=O)N2CCN(c3cc(C(F)(F)c4ccccc4)cc(Cl)n3)CC2)cc1` [Example 87, (3aR,7aS)-3-[4-[4-[6-chloro-4-[difluoro(phenyl)methyl]-2-pyridyl]piperazin-1-yl]sulfonylphenyl]-3a,4,5,6,7,7a-hexahydrooxazolo[4,5-c]pyridin-2-one], half-maximal inhibition in assay [1] (IC50) required 0.0116 µM. For the same compound, the MIC in the assay with E. coli (ATCC 25922) (setting [3]) amounted to 0.55 µg/mL (≈ 0.91 µM); in assay [2] (setting [4]), 1.09 µg/mL (≈ 1.8 µM).
For `O=C1OC2(CCNCC2)CN1c1ccc(S(=O)(=O)N2CCN(c3cc(C(F)(F)F)cc(Cl)n3)CC2)cc1` [Example 14, 3-[4-[4-[6-Chloro-4-(trifluoromethyl)-2-pyridyl]piperazin-1-yl]sulfonylphenyl]-1-oxa-3,8-diazaspiro[4.5]decan-2-one] the same measures were 0.0964 µM, 1.75 µg/mL (≈ 3.13 µM) and 3.5 µg/mL (≈ 6.25 µM).
